# Data from paper PMC8632988, “Inhibition of SYK and cSrc kinases can protect bone and cartilage in preclinical models of osteoarthritis and rheumatoid arthritis” (Scientific Reports, 2021).
# Experiments:
# Assay in all cases: Kinase selectivity profile assay
# Format in all cases: biochemical
# CDK16/cyclin Y = target: T1, CDK16/cyclin Y (Homo sapiens, UniProt Q00536); conditions: 500 nM; relative to DMSO; read-out: Residual enzymatic activity
# T1 construct: purchased Reaction Biology Corporation
# Method: (§1) The activity of MT-SYK-03 against cSrc kinase and selectivity profile towards other 341 kinases was determined at Reaction Biology Corporation (Malvern, PA, USA) using the standard kinase assay protocol. […]; unbound phosphate was removed by extensive washing of filters in phosphoric acid. Kinase activity data was expressed as the percent remaining kinase activity in test samples compared to vehicle (dimethyl sulfoxide) reactions based on the radioactivity of reaction products (see Table S2). Experiment was replicated twice.
# LIMK2 = target: T2, LIMK2 (Homo sapiens, UniProt P53671); conditions: 500 nM; relative to DMSO; read-out: Residual enzymatic activity
# T2 construct: purchased Reaction Biology Corporation
# Method: as §1
# P38g = target: T3, P38g (Homo sapiens, UniProt P53778); conditions: 500 nM; relative to DMSO; read-out: Residual enzymatic activity
# T3 construct: purchased Reaction Biology Corporation
# Method: as §1
# NEK5 = target: T4, NEK5 (Homo sapiens, UniProt Q6P3R8); conditions: 500 nM; relative to DMSO; read-out: Residual enzymatic activity
# T4 construct: purchased Reaction Biology Corporation
# Method: as §1
# HCK = target: T5, HCK (Homo sapiens, UniProt P08631); conditions: 500 nM; relative to DMSO; read-out: Residual enzymatic activity
# T5 construct: purchased Reaction Biology Corporation (assay service)
# Method: as §1
# DYRK2 = target: T6, DYRK2 (Homo sapiens, UniProt Q92630); conditions: 500 nM; relative to DMSO; read-out: Residual enzymatic activity
# T6 construct: purchased Reaction Biology Corporation
# Method: as §1
# JAK3 = target: T7, JAK3 (Homo sapiens, UniProt P52333); conditions: 500 nM; relative to DMSO; read-out: Residual enzymatic activity
# T7 construct: purchased Reaction Biology Corporation
# Method: as §1
# AKT1 = target: T8, AKT1 (Homo sapiens, UniProt P31749); conditions: 500 nM; relative to DMSO; read-out: Residual enzymatic activity
# T8 construct: purchased Reaction Biology Corporation
# Method: as §1
# ALK1/ACVRL1 = target: T9, ALK1/ACVRL1 (Homo sapiens, UniProt P37023); conditions: 500 nM; relative to DMSO; read-out: Residual enzymatic activity
# T9 construct: purchased Reaction Biology Corporation
# Method: as §1
# RSK3 = target: T10, RSK3 (Homo sapiens, UniProt Q15349); conditions: 500 nM; relative to DMSO; read-out: Residual enzymatic activity
# T10 construct: purchased Reaction Biology Corporation
# Method: as §1
# MAPKAPK2 = target: T11, MAPKAPK2 (Homo sapiens, UniProt P49137); conditions: 500 nM; relative to DMSO; read-out: Residual enzymatic activity
# T11 construct: purchased Reaction Biology Corporation
# Method: as §1
# CAMK2g = target: T12, CAMK2g (Homo sapiens, UniProt Q13555); conditions: 500 nM; relative to DMSO; read-out: Residual enzymatic activity
# T12 construct: purchased Reaction Biology Corporation
# Method: as §1
# DMPK2 = target: T13, DMPK2 (Homo sapiens, UniProt Q6DT37); conditions: read-out: Residual enzymatic activity
# T13 construct: purchased Reaction Biology Corporation
# T13 sequence (Q6DT37 whole entry): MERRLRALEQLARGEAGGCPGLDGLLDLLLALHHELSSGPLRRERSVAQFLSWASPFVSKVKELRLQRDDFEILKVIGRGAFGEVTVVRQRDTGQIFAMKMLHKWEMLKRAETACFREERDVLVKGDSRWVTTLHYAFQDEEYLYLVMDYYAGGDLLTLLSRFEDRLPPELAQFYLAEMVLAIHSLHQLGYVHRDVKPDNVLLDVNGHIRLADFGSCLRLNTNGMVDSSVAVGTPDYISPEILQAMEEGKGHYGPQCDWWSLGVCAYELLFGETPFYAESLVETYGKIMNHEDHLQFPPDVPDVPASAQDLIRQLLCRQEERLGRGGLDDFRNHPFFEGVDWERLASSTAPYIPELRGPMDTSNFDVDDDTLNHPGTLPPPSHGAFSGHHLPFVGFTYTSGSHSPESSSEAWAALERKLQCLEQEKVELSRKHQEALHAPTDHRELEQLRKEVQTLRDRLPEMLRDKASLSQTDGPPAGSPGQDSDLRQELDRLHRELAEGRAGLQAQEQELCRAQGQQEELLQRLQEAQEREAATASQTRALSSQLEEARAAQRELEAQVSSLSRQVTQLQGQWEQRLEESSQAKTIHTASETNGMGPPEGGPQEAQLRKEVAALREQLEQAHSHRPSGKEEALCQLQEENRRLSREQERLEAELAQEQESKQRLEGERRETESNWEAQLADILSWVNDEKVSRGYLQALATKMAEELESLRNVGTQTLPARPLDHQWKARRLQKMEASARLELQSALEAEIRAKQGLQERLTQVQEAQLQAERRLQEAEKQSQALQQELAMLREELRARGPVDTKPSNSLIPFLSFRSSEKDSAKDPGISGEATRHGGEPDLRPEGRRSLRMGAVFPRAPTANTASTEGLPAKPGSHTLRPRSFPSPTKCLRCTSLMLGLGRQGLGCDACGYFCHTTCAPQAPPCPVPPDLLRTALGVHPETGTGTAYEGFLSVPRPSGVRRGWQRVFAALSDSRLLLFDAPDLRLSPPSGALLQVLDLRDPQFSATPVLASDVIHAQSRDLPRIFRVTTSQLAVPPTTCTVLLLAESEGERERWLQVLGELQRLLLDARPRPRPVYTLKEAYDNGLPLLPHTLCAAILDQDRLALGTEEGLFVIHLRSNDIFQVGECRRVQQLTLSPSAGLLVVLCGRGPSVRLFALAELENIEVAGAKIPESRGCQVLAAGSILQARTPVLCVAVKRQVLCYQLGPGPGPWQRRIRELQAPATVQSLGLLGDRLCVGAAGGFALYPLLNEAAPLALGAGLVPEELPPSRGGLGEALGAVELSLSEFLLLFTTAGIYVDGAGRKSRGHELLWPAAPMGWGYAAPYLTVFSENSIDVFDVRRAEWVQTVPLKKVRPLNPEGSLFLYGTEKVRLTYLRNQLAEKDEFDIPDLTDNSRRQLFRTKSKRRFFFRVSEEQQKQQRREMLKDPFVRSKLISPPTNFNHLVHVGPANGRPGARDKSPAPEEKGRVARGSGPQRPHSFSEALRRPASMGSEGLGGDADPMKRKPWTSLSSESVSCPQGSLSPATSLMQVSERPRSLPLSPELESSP
# Method: as §1
# FGFR4 = target: T14, FGFR4 (Homo sapiens, UniProt P22455); conditions: 500 nM; relative to DMSO; read-out: Residual enzymatic activity
# T14 construct: purchased Reaction Biology Corporation
# Method: as §1
# ULK3 = target: T15, ULK3 (Homo sapiens, UniProt Q6PHR2); conditions: 500 nM; relative to DMSO; read-out: Residual enzymatic activity
# T15 construct: purchased Reaction Biology Corporation
# Method: as §1
# MNK2 = target: T16, MNK2 (Homo sapiens, UniProt Q9HBH9); conditions: 500 nM; relative to DMSO; read-out: Residual enzymatic activity
# T16 construct: purchased Reaction Biology Corporation
# T16 sequence (Q9HBH9 whole entry): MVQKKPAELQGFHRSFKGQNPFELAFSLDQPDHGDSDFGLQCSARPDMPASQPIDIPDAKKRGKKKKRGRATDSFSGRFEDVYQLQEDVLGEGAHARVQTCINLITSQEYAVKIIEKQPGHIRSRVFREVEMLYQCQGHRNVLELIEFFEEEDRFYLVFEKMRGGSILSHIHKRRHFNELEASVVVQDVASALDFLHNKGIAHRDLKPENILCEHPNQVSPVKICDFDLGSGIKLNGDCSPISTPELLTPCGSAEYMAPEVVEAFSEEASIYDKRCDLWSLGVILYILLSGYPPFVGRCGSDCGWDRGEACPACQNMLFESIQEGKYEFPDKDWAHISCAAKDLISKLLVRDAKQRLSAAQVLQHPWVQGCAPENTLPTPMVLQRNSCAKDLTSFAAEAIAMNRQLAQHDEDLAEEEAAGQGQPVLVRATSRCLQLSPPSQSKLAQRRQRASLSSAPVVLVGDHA
# Method: as §1
# PKCd = target: T17, PKCd (Homo sapiens, UniProt Q05655); conditions: 500 nM; relative to DMSO; read-out: Residual enzymatic activity
# T17 construct: purchased Reaction Biology Corporation
# Method: as §1
# CLK2 = target: T18, CLK2 (Homo sapiens, UniProt P49760); conditions: 500 nM; relative to DMSO; read-out: Residual enzymatic activity
# T18 construct: purchased Reaction Biology Corporation
# T18 sequence (P49760 whole entry): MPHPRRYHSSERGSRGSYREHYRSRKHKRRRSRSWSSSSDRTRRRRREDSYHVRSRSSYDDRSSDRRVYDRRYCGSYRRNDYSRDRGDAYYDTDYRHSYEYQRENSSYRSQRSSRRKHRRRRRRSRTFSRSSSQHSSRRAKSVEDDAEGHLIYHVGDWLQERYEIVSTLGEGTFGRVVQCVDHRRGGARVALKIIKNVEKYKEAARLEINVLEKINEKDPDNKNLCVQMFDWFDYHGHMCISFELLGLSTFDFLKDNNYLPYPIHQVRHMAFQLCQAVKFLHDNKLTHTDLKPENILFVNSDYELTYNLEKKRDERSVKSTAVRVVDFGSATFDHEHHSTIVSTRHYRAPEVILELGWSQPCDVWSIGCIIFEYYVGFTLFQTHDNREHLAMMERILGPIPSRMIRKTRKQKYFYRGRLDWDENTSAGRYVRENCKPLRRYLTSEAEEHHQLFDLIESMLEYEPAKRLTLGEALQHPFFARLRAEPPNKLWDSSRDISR
# Method: as §1
# DDR2 = target: T19, DDR2 (Homo sapiens, UniProt Q16832); conditions: 500 nM; relative to DMSO; read-out: Residual enzymatic activity
# T19 construct: purchased Reaction Biology Corporation
# Method: as §1
# LYN = target: T20, LYN (Homo sapiens, UniProt P07948); conditions: 500 nM; relative to DMSO; read-out: Residual enzymatic activity
# T20 construct: purchased Reaction Biology Corporation (assay service)
# Method: as §1
# TNIK = target: T21, TNIK (Homo sapiens, UniProt Q9UKE5); conditions: 500 nM; relative to DMSO; read-out: Residual enzymatic activity
# T21 construct: purchased Reaction Biology Corporation
# Method: as §1
# c-MET = target: T22, c-MET (Homo sapiens, UniProt P08581); conditions: 500 nM; relative to DMSO; read-out: Residual enzymatic activity
# T22 construct: purchased Reaction Biology Corporation
# Method: as §1
# PIM2 = target: T23, PIM2 (Homo sapiens, UniProt Q9P1W9); conditions: 500 nM; relative to DMSO; read-out: Residual enzymatic activity
# T23 construct: purchased Reaction Biology Corporation
# Method: as §1
# PRKX = target: T24, PRKX (Homo sapiens, UniProt P51817); conditions: 500 nM; relative to DMSO; read-out: Residual enzymatic activity
# T24 construct: purchased Reaction Biology Corporation
# T24 sequence (P51817 whole entry): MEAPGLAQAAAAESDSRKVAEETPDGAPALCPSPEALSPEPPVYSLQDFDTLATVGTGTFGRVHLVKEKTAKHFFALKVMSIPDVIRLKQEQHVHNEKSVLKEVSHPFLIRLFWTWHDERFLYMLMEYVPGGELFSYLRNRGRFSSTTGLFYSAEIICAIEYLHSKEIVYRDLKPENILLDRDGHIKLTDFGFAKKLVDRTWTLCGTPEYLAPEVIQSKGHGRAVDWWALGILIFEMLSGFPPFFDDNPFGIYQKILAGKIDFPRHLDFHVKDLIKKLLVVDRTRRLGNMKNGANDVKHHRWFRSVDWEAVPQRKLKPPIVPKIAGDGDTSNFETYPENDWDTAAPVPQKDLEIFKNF
# Method: as §1
# MST1/STK4 = target: T25, MST1/STK4 (Homo sapiens, UniProt Q13043); conditions: 500 nM; relative to DMSO; read-out: Residual enzymatic activity
# T25 construct: purchased Reaction Biology Corporation
# Method: as §1
# ALK = target: T26, ALK (Homo sapiens, UniProt Q9UM73); conditions: 500 nM; relative to DMSO; read-out: Residual enzymatic activity
# T26 construct: purchased Reaction Biology Corporation
# Method: as §1
# TAOK2/TAO1 = target: T27, TAOK2/TAO1 (Homo sapiens, UniProt Q9UL54); conditions: 500 nM; relative to DMSO; read-out: Residual enzymatic activity
# T27 construct: purchased Reaction Biology Corporation
# Method: as §1
# MEKK2 = target: T28, MEKK2 (Homo sapiens, UniProt Q9Y2U5); conditions: 500 nM; relative to DMSO; read-out: Residual enzymatic activity
# T28 construct: purchased Reaction Biology Corporation
# Method: as §1
# MST4 = target: T29, MST4 (Homo sapiens, UniProt Q9P289); conditions: 500 nM; relative to DMSO; read-out: Residual enzymatic activity
# T29 construct: purchased Reaction Biology Corporation
# T29 sequence (Q9P289 whole entry): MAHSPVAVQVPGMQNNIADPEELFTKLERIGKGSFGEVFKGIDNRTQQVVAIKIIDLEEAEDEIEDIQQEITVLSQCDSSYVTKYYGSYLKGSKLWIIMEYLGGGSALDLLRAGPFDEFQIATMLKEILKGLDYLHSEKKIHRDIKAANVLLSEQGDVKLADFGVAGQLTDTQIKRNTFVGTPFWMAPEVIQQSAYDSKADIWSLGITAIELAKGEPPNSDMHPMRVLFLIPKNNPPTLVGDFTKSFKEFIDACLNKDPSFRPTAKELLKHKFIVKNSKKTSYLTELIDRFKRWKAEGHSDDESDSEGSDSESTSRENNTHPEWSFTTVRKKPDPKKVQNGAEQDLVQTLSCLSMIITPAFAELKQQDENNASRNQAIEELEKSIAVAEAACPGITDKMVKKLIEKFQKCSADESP
# Method: as §1
# MEK3 = target: T30, MEK3 (Homo sapiens, UniProt P46734); conditions: 500 nM; relative to DMSO; read-out: Residual enzymatic activity
# T30 construct: purchased Reaction Biology Corporation
# T30 sequence (P46734 whole entry): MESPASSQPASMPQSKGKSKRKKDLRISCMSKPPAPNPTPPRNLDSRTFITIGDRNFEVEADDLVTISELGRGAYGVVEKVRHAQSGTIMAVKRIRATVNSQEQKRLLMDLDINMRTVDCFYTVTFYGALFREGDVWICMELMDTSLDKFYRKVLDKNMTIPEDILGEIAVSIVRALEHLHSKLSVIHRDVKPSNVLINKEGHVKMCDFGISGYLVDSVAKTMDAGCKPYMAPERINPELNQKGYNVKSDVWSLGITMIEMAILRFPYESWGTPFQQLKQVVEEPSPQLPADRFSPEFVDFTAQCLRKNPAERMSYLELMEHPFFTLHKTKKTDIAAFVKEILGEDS
# Method: as §1
# PDK1/PDPK1 = target: T31, PDK1/PDPK1 (Homo sapiens, UniProt O15530); conditions: 500 nM; relative to DMSO; read-out: Residual enzymatic activity
# T31 construct: purchased Reaction Biology Corporation
# Method: as §1
# PLK1 = target: T32, PLK1 (Homo sapiens, UniProt P53350); conditions: 500 nM; relative to DMSO; read-out: Residual enzymatic activity
# T32 construct: purchased Reaction Biology Corporation
# Method: as §1
# CTK/MATK = target: T33, CTK/MATK (Homo sapiens, UniProt P42679); conditions: 500 nM; relative to DMSO; read-out: Residual enzymatic activity
# T33 construct: purchased Reaction Biology Corporation
# Method: as §1
# NEK9 = target: T34, NEK9 (Homo sapiens, UniProt Q8TD19); conditions: 500 nM; relative to DMSO; read-out: Residual enzymatic activity
# T34 construct: purchased Reaction Biology Corporation
# Method: as §1
# MYLK3 = target: T35, MYLK3 (Homo sapiens, UniProt Q32MK0); conditions: 500 nM; relative to DMSO; read-out: Residual enzymatic activity
# T35 construct: purchased Reaction Biology Corporation
# Method: as §1
# LCK2/ICK = target: T36, LCK2/ICK (Homo sapiens, UniProt Q9UPZ9); conditions: 500 nM; relative to DMSO; read-out: Residual enzymatic activity
# T36 construct: purchased Reaction Biology Corporation
# Method: as §1
# ERBB4/HER4 = target: T37, ERBB4/HER4 (Homo sapiens, UniProt Q15303); conditions: 500 nM; relative to DMSO; read-out: Residual enzymatic activity
# T37 construct: purchased Reaction Biology Corporation
# T37 sequence (Q15303 26-1308): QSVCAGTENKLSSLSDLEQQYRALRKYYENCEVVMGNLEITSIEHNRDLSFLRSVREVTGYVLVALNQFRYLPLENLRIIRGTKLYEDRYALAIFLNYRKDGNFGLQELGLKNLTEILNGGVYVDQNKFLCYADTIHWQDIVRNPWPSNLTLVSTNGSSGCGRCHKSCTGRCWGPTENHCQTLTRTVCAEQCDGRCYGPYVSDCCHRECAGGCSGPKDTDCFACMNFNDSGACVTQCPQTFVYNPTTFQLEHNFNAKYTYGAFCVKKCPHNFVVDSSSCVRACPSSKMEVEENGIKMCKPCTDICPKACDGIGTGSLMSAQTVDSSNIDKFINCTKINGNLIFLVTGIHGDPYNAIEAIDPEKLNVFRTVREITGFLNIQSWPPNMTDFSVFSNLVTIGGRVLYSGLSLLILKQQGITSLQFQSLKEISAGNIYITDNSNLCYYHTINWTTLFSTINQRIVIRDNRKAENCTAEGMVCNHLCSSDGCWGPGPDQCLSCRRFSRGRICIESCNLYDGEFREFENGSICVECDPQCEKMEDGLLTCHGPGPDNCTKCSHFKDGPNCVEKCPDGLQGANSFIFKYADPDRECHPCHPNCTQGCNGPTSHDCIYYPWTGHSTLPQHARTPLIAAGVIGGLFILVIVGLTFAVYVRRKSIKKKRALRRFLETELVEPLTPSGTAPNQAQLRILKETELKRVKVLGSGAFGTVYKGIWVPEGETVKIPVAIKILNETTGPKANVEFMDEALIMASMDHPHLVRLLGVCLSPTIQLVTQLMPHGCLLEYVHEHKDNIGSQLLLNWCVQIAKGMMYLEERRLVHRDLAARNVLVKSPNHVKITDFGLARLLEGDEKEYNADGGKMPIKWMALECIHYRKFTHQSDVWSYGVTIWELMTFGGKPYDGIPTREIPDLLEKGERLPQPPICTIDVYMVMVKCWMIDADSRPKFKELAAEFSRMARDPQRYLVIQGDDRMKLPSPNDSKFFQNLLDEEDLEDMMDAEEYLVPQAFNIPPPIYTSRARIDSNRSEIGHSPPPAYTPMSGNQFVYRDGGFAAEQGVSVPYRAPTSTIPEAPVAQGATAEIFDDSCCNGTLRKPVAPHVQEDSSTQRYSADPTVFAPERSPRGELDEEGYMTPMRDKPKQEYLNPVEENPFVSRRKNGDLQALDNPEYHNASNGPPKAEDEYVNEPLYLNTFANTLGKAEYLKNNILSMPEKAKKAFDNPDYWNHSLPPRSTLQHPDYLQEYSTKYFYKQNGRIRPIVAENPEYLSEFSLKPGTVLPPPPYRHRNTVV
# Method: as §1
# CLK4 = target: T38, CLK4 (Homo sapiens, UniProt Q9HAZ1); conditions: 500 nM; relative to DMSO; read-out: Residual enzymatic activity
# T38 construct: purchased Reaction Biology Corporation
# Method: as §1
# WNK1 = target: T39, WNK1 (Homo sapiens, UniProt Q9H4A3); conditions: 500 nM; relative to DMSO; read-out: Residual enzymatic activity
# T39 construct: purchased Reaction Biology Corporation
# Method: as §1
# CDK2/Cyclin A1 = target: T40, CDK2/Cyclin A1 (Homo sapiens, UniProt P24941); conditions: 500 nM; relative to DMSO; read-out: Residual enzymatic activity
# T40 construct: purchased Reaction Biology Corporation
# Method: as §1
structure (smiles),measurement,setting,value
"COc1cc(Nc2ncc(F)c(Nc3ccc4c(n3)NC(=O)C(C)(C)O4)n2)cc(OC)c1OC [R406, reference compound]",remaining activity at 0.5 µM,CDK16/cyclin Y,63.3%
same,remaining activity at 0.5 µM,LIMK2,77.5%
same,remaining activity at 0.5 µM,P38g,90.5%
same,remaining activity at 0.5 µM,NEK5,27.1%
same,remaining activity at 0.5 µM,HCK,15.4%
same,remaining activity at 0.5 µM,DYRK2,64.1%
same,remaining activity at 0.5 µM,JAK3,10.4%
same,remaining activity at 0.5 µM,AKT1,99.4%
same,remaining activity at 0.5 µM,ALK1/ACVRL1,100%
same,remaining activity at 0.5 µM,RSK3,52%
same,remaining activity at 0.5 µM,MAPKAPK2,106%
same,remaining activity at 0.5 µM,CAMK2g,101%
same,remaining activity at 0.5 µM,DMPK2,57.5%
same,remaining activity at 0.5 µM,FGFR4,58%
same,remaining activity at 0.5 µM,ULK3,20.3%
same,remaining activity at 0.5 µM,MNK2,37.9%
same,remaining activity at 0.5 µM,PKCd,97.7%
same,remaining activity at 0.5 µM,CLK2,81.6%
same,remaining activity at 0.5 µM,DDR2,31.5%
same,remaining activity at 0.5 µM,LYN,5.7%
same,remaining activity at 0.5 µM,TNIK,83.1%
same,remaining activity at 0.5 µM,c-MET,71.4%
same,remaining activity at 0.5 µM,PIM2,95.6%
same,remaining activity at 0.5 µM,PRKX,104%
same,remaining activity at 0.5 µM,MST1/STK4,86.3%
same,remaining activity at 0.5 µM,ALK,41.2%
same,remaining activity at 0.5 µM,TAOK2/TAO1,47.4%
same,remaining activity at 0.5 µM,MEKK2,56.8%
same,remaining activity at 0.5 µM,MST4,94.8%
same,remaining activity at 0.5 µM,MEK3,131%
same,remaining activity at 0.5 µM,PDK1/PDPK1,30.7%
same,remaining activity at 0.5 µM,PLK1,60.4%
same,remaining activity at 0.5 µM,CTK/MATK,120%
same,remaining activity at 0.5 µM,NEK9,2.5%
same,remaining activity at 0.5 µM,MYLK3,96.4%
same,remaining activity at 0.5 µM,LCK2/ICK,99.8%
same,remaining activity at 0.5 µM,ERBB4/HER4,68.2%
same,remaining activity at 0.5 µM,CLK4,52.1%
same,remaining activity at 0.5 µM,WNK1,103%
same,remaining activity at 0.5 µM,CDK2/Cyclin A1,59.5%
